What is called IC50 is the midpoint of a concentration-inhibition curve.

One experiment has as its system human myeloma CAG cells. Description: Cell proliferation, CAG (Example 2). Particulars: multiple myeloma, 72 hours, 0.1% DMSO, WST-1. Type of experiment: cell-based. As to the method:
(§1) Human ovary cancer A2780 cells lines were seeded at a density of 5000 cells/well, human melanoma A375 cells were plated at a density of 2,500 cells/well, human colon carcinoma HCT15 cells were plated at a density of 3,000 cells/well, human prostate carcinoma PC3 cells were plated at a density of 1,500 cells/well, human breast carcinoma MCF7 cells were plated at a density of 5,000 cells/well, human breast carcinoma MDA MB 468 cells were plated at a density of 6,000 cells/well, human myeloma U266, RPMI8226 and CAG cells were plated at a density of 10,000 cells/well. All cells were plated in 96-well plates in 90 μl growth medium containing 10% FCS, 100 units/ml penicillin and 100 μg/ml streptomycin. Compound 3 was added a day later in […] of 1% DMSO in DDW to obtain final concentrations of 0, 0.1, 0.3, 1, 3, and 10 μM. The final concentration of DMSO (0.1% DMSO) was kept constant in all samples. […] The optical density values were read at 630 nm in ELISA plate reader. Non-adhered cells were exposed to WST-1 reagent for 5 hours following 72 hours treatment with the inhibitors, and optical density values were read at 630 nm in ELISA plate reader. The data was analyzed in Microsoft Excel, using the vehicle control as 100% proliferation. […]

The subject of experiment [1] is human multiple myeloma U266 cells. The experiment can be described thus: Cell proliferation, U266 (Example 4). Type of experiment: cell-based. Particulars: U-266, compound in 2-hydroxypropyl-β-cyclodextrin. As to the method:
as §1

A further experiment has as its system IRS1 & IRS2. The experiment can be described thus: IRS1 and IRS2 levels in A375 cells (Example 5). It is filed as cell-based, human. As to the method: (§2) The effect of compound 5 on IRS1 & IRS2 levels and its effect on IGF1-induced Akt/PKB activation and apoptosis in melanoma A375 cells were tested. Cells were seeded in 6-well plates (150,000 A375 cells/well) and 24 hours later medium was replaced by serum-free medium (RPMI supplemented with 100 units/ml penicillin and 100 μg/ml streptomycin), […], and then stimulated for 5 minutes with 50 ng/ml IGF-1, washed twice with PBS and lysed by boiling sample buffer (10% glycerol, 50 mM Tris-HCl, pH 6.8, 3% SDS, and 5% β-mercaptoethanol). Equal amounts of protein per lane were separated by 8% SDS-PAGE and transferred to a nitrocellulose membrane (Sartorius AG). To detect the inhibition of the Akt/PKB activation, phosphorylated proteins were immunoblotted with anti-phospho(T308)Akt (pT308-PKB) and anti-phospho-Tuberin/TSC2 (pTuberin) antibodies. To visualize cell death induced by compound 5, the intact and the cleaved PARP were immunoblotted with anti-PARP antibody. The changes in the levels of IRS1 and IRS2 were detected with specific antibodies. Detection was performed with horseradish peroxidase-conjugated secondary antibody using the ECL system. Blots were then stripped of antibodies, blocked with TBST with 5% low fat milk and re-probed with antibodies detecting both the phosphorylated and the non-phosphorylated Akt/PKB. […]

The test system of experiment [2] is human melanoma A375 cells. Description: Cell death (PARP cleavage) in A375 cells. Type of experiment: cell-based. How it is done: as §2

With `O=c1c(O)cc2cnc(/C=C/c3cc(O)c(O)c(Br)c3)sc-2c1O` [Compound 3], the results for the half-maximal inhibitory concentration (IC50) (in the experiment with human myeloma CAG cells; in experiment [1]) were 1200 nM and 700 nM, respectively.

Consider `O=c1c(O)cc2cnc(/C=C/c3ccc(O)c(O)c3Br)sc-2c1O` [Compound 5], for which the “IRS1 and IRS2 levels” value in the experiment on IRS1 & IRS2 (3 μM, 48 hr, FIG. 6B) was “induced a decrease in IRS1 and IRS2 levels”. The “levels of IRS1 & IRS2 after washout” value in the experiment with IRS1 & IRS2 (5 μM for 4 hr, washed, 24 hr after washout, FIG. 6C) is reported as “remained low”. Also, the “cell death (PARP cleavage)” value in experiment [2] (3 μM, 48 hr, FIG. 6A, 6B) was “induced cell death (PARP cleavage)”. Besides, the “cell death (PARP cleavage) after washout” value in experiment [2] (5 μM for 4 hr, 24 hr following washout, FIG. 6C) is on record as “enough to trigger a process which leads to cell death”.

The values above are taken from patent US9073880B2, “2-(2-phenylethenyl) 1,3-benzodiazepine derivatives useful for the treatment of cancer” (Yissum Research Development Company of the Hebrew …, priority 2010, dated 2015).
